Among the data in US10287269B2, “Pyrazolyl pyrimidinone compounds as PDE2 inhibitors” (Merck Sharp & Dohme Corp., priority 2015, dated 2019) are Ki values, retold here.

Structures are written as SMILES.

In general, Ki refers to a dissociation constant, usually derived from enzyme kinetics or from competition with a known ligand.

T1 sequence (O00408 1-920 isoform O00408-2): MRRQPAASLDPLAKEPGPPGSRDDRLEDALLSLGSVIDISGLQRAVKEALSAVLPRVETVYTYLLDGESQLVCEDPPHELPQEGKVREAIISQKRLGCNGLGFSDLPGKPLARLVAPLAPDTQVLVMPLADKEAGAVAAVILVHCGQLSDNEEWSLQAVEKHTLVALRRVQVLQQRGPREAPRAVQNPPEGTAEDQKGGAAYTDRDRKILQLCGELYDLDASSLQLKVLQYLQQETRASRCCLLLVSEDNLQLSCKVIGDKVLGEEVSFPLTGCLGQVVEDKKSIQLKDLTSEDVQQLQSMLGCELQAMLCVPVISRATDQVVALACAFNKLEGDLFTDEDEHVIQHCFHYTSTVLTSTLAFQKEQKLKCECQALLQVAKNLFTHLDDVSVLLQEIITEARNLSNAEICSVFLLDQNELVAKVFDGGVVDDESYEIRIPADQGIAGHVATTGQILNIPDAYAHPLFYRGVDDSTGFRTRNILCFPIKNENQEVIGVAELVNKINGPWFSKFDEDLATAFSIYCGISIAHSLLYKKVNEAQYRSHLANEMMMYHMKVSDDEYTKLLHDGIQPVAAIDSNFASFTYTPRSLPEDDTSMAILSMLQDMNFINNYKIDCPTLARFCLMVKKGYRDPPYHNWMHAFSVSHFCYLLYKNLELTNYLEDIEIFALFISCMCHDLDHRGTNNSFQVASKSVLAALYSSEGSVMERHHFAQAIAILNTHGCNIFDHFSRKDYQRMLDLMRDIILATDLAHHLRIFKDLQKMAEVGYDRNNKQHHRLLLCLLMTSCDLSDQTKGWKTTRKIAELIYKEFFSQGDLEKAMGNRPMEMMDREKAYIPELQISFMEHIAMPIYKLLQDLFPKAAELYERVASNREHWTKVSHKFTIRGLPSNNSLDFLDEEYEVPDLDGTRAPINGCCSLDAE

The first experiment has as its target T1, human PDE2A1 (Homo sapiens, UniProt O00408).
T1 construct: GST; purchased BPS Bioscience (San Diego, Calif.) 60020; host or cells: insect cells
Description: PDE2 IMAP FP inhibition assay, human enzyme (PDE selectivity panel format). It is filed as biochemical. The settings on record: Lab A; read-out: Human PDE2 Ki (nM) Lab A. A digest of the protocol:
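GST-tagged human PDE2A1 from insect cells, run at room temperature in 10 mM Tris pH 7.2, 10 mM MgCl2, 1 mM DTT with 50 nM FAM-cAMP plus 1000 nM cGMP for 60 min. IMAP fluorescence polarization read-out; apparent Ki derived using apparent KM 10,000 nM.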
Take `CC(c1ccc(C(F)(F)F)cc1F)n1cc(-c2cc(=O)[nH]c(Cc3ccccc3)n2)cn1` (centres unmarked) [Example 35, 2-benzyl-6-(1-(1-(2-fluoro-4-(trifluoromethyl)phenyl)ethyl)-1H-pyrazol-4-yl)pyrimidin-4(3H)-one]: the inhibition constant (Ki) turned out to be 60.4 nM. The same measure, in the same setting: next, `CCc1nc(-c2cnn(C(C)c3ccc(C(F)(F)F)cc3F)c2)cc(=O)[nH]1` (centres unmarked) [Example 36, 2-ethyl-6-(1-(1-(2-fluoro-4-(trifluoromethyl)phenyl)ethyl)-1H-pyrazol-4-yl)pyrimidin-4(3H)-one]: 17.2 nM; `Cc1nc(-c2cnn(C3(c4ccc(C(F)(F)F)cc4F)CCC3)c2)cc(=O)[nH]1` [Example 37, 6-(1-(1-(2-fluoro-4-(trifluoromethyl)phenyl)cyclobutyl)-1H-pyrazol-4-yl)-2-methylpyrimidin-4(3H)-one]: 7.9 nM. Consider `COc1ccc(Cc2nc(-n3cc(C(C)c4ccc(C(F)(F)F)cc4)cn3)cc(=O)[nH]2)cc1OC` (centres unmarked) [Example 137, 2-(3,4-dimethoxybenzyl)-6-(4-(1-(4-(trifluoromethyl)phenyl)ethyl)-1H-pyrazol-1-yl)pyrimidin-4(3H)-one], for which the Ki was found to be 1 nM. Still for that read-out and setting: next, `Cc1ccc(C(C)n2cc(-c3cc(=O)[nH]c(C)n3)cn2)cc1` (centres unmarked) [Example 153, 2-methyl-6-(1-(1-(p-tolyl)ethyl)-1H-pyrazol-4-yl)pyrimidin-4(3H)-one]: 1240 nM.

The same experiment, now with this note: Lab B; read-out: Human PDE2 Ki (nM) Lab B.
For the compound `Cc1nc(-n2cc(C(C)c3ccc(C4CC4)cc3)cn2)cc(=O)[nH]1` (centres unmarked) [Example 39, 6-(4-(1-(4-cyclopropylphenyl)ethyl)-1H-pyrazol-1-yl)-2-methylpyrimidin-4(3H)-one], the Ki is 35.3 nM. For `Cc1nc(-n2cc(C(C)c3ccc(C4(C)CC4)cc3)cn2)cc(=O)[nH]1` (centres unmarked) [Example 40, 2-methyl-6-(4-(1-(4-(1-methylcyclopropyl)phenyl)ethyl)-1H-pyrazol-1-yl)pyrimidin-4(3H)-one], the inhibitory constant (Ki) came out at 197 nM. For the compound `Cc1nc(-n2cc(Cc3ccc(C(F)(F)F)cc3)cn2)cc(=O)[nH]1` [Example 48, 2-methyl-6-(4-(4-(trifluoromethyl)benzyl)-1H-pyrazol-1-yl)pyrimidin-4(3H)-one], the inhibition constant Ki worked out at 219 nM. Same read-out and setting: in the case of `Cc1nc(-c2cn(C(C)c3ccc(C(F)(F)F)cc3)nc2C)cc(=O)[nH]1` (centres unmarked) [Example 80, 2-methyl-6-(3-methyl-1-(1-(4-(trifluoromethyl)phenyl)ethyl)-1H-pyrazol-4-yl)pyrimidin-4(3H)-one] it was 140 nM; in that of `Cc1nc(-c2cnn(C(C)c3ccc(C(F)(F)F)cc3)c2)cc(=O)[nH]1` (centres unmarked) [Example 126, 2-methyl-6-(1-(1-(4-(trifluoromethyl)phenyl)ethyl)-1H-pyrazol-4-yl)pyrimidin-4(3H)-one], 233 nM; in that of `CCC(c1ccc(C(F)(F)F)cc1)c1cnn(-c2cc(=O)[nH]c(C)n2)c1` (centres unmarked) [Example 129, 2-methyl-6-(4-(1-(4-(trifluoromethyl)phenyl)propyl)-1H-pyrazol-1-yl)pyrimidin-4(3H)-one], 141 nM. As to `Cc1nc(-n2cc(C(c3ccc(C(F)(F)F)cc3)C(C)C)cn2)cc(=O)[nH]1` (centres unmarked) [Example 130], the Ki stood at 87.6 nM.

With `COc1ccc(Cc2nc(-n3cc(C(C)c4ccc(C(F)(F)F)cc4)cn3)cc(=O)[nH]2)cc1OC` (centres unmarked) [Example 137, 2-(3,4-dimethoxybenzyl)-6-(4-(1-(4-(trifluoromethyl)phenyl)ethyl)-1H-pyrazol-1-yl)pyrimidin-4(3H)-one], the Ki came out at 0.4 nM.

`CCCC(c1ccc(C(F)(F)F)cc1)n1cc(-c2cc(=O)[nH]c(C)n2)cn1` (centres unmarked) [Example 154, 2-methyl-6-(1-(1-(4-(trifluoromethyl)phenyl)butyl)-1H-pyrazol-4-yl)pynmidin-4(3H)-one]: the Ki was 265 nM.
